Numbers after ± are expanded uncertainties.
How the values were obtained:
[1] = 100 kPa, Liquid; for speed of sound: Linear variable-path acoustic interferometer; for mass density: Vibrating tube method
[2] = xn = mol fraction of the nth substance listed; conditions: 100 kPa, Liquid, x2 = 0; for speed of sound: Linear variable-path acoustic interferometer; for mass density: Vibrating tube method

CCn1cc[n+](C)c1.O=S(=O)([O-])O [1-ethyl-3-methylimidazolium hydrogen sulfate]
[1], Frequency=2 MHz
Conditions	speed of sound [m/s]
298.15 K	1982.8 ± 2.8
303.15 K	1962.9 ± 2.8
308.15 K	1943.1 ± 2.8
313.15 K	1923.2 ± 2.8

[1]
Conditions	mass density [kg/m3]
298.15 K	1365.75 ± 2.5
303.15 K	1362.62 ± 2.5
308.15 K	1359.53 ± 2.5
313.15 K	1356.41 ± 2.5

C[S+](C)[O-] [dimethyl sulfoxide]
[1], Frequency=2 MHz
Conditions	speed of sound [m/s]
298.15 K	1485 ± 1.7
303.15 K	1468.3 ± 1.7
308.15 K	1451.1 ± 1.7
313.15 K	1434.2 ± 1.7

[1]
Conditions	mass density [kg/m3]
298.15 K	1095.33 ± 2
303.15 K	1090.32 ± 2
308.15 K	1085.31 ± 2
313.15 K	1080.29 ± 2

C[S+](C)[O-] [dimethyl sulfoxide] + CCn1cc[n+](C)c1.O=S(=O)([O-])O
[2], Frequency=2 MHz
Conditions	speed of sound [m/s]
298.15 K	1485 ± 1.7
303.15 K	1468.3 ± 1.7
308.15 K	1451.1 ± 1.7
313.15 K	1434.2 ± 1.7

[2]
Conditions	mass density [kg/m3]
298.15 K	1095.33 ± 2
303.15 K	1090.32 ± 2
308.15 K	1085.31 ± 2
313.15 K	1080.29 ± 2

CCO [ethanol]
[1], Frequency=3 MHz
Conditions	speed of sound [m/s]
298.15 K	1142.7 ± 1.5
303.15 K	1125.3 ± 1.5
308.15 K	1108.8 ± 1.5
313.15 K	1091.5 ± 1.5

[1]
Conditions	mass density [kg/m3]
298.15 K	785.26 ± 2
303.15 K	780.98 ± 2
308.15 K	776.66 ± 2
313.15 K	772.28 ± 2

CCO [ethanol] + CCn1cc[n+](C)c1.O=S(=O)([O-])O
[2], Frequency=3 MHz
Conditions	speed of sound [m/s]
298.15 K	1142.7 ± 1.5
303.15 K	1125.3 ± 1.5
308.15 K	1108.8 ± 1.5
313.15 K	1091.5 ± 1.5

[2]
Conditions	mass density [kg/m3]
298.15 K	785.26 ± 2
303.15 K	780.98 ± 2
308.15 K	776.66 ± 2
313.15 K	772.28 ± 2

CCCO [propan-1-ol]
[1], Frequency=2 MHz
Conditions	speed of sound [m/s]
298.15 K	1206.1 ± 1.6
303.15 K	1189.1 ± 1.6
308.15 K	1172.2 ± 1.6
313.15 K	1155.4 ± 1.6

[1]
Conditions	mass density [kg/m3]
298.15 K	799.96 ± 2
303.15 K	795.92 ± 2
308.15 K	791.82 ± 2
313.15 K	787.73 ± 2

CCCO [propan-1-ol] + CCn1cc[n+](C)c1.O=S(=O)([O-])O
[2], Frequency=2 MHz
Conditions	speed of sound [m/s]
298.15 K	1206.1 ± 1.6
303.15 K	1189.1 ± 1.6
308.15 K	1172.2 ± 1.6
313.15 K	1155.4 ± 1.6

[2]
Conditions	mass density [kg/m3]
298.15 K	799.96 ± 2
303.15 K	795.92 ± 2
308.15 K	791.82 ± 2
313.15 K	787.73 ± 2
